Key:
[1] = system: E. coli Marionette MG1655; settings: 1 mM choline-Cl
Method: The reporter plasmid pMR-120 in which gfpmut3b is fused to the PT7(P2) promoter (FIGS. 28A-28C) was co-transformed to analyze the response functions of each of the 12 T7 RNAP controller plasmids. To characterize controllers, single colonies were inoculated into 1 ml LB supplemented with antibiotics in 96-deepwell plates (USA Scientific, Cat #18962110) and grown overnight at 30° C., 900 rpm in a Multitron incubator (INFORS HT, MD). 0.5 μl of overnight cultures was diluted into 200 μl of LB with antibiotics and appropriate inducers in 96-well plates (Thermo Scientific, Cat #12565215) and incubated for 6 h at 30° C., 1,000 rpm in an ELMI DTS-4 shaker (ELMI, CA). After growth, 4 μl of culture sample was diluted into 150 μl PBS with 2 mg/mL kanamycin for flow cytometry analysis.
Flow cytometry. Cultures with fluorescence proteins were analyzed by flow cytometry using a BD Biosciences LSRII Forterssa analyzer with a 488 nm laser and 510/20-nm band pass filter for GFP and a 561 nm laser and 610/20 nm band pass filter for mCherry and mRFP1. […] The median fluorescence from cytometry histograms was calculated for all samples. The median autofluorescence was subtracted from the median fluorescence and reported as the fluorescence value in arbitrary unit (au).

P. protegens Pf-5 [2] = assay: Genetic part characterization for P. protegens (promoters, RBSs, terminators, inducible systems; fluorescence reporter, flow cytometry); assay type: cell-based, Pseudomonas protegens; settings: Ptac promoter and Lad (Q18M/A47V/F161Y) protein, 1 mM IPTG, P. protegens Pf-5
Text: Construction and characterization genetic parts for P. protegens. Genetic part libraries were built on a pRO1600-ori plasmid pMR-2 using Gibson assembly (New England Biolabs, Cat # E2611). The fluorescence proteins, GFPmut3b and mRFP1 were used as reporters. The Anderson promoter library on the BioBricks Registry were utilized for the characterization of constitutive promoters (FIGS. 11A-11C). The following combinations of cognate regulators and inducible promoters were characterized. IPTG inducible LacI-Ptac, DAPG inducible PhlF-PPhl, aTc inducible TetR-PTet, 3OC6HSL inducible LuxR-PLux, arabinose inducible AraC-PBAD, cuminic acid inducible CymR-PCym, and naringenin inducible FdeR-PFde were optimized (FIGS. 15A-15C). […] RBS library for GFP was designed using the RBS library calculator at the highest-resolution mode, and the 3′ end of the 16S rRNA sequences were adjusted according to the species (3′-ACCTCCTTA-5′ for P. protegens Pf-5). Terminators for T7 RNAP were characterized by placing a terminator between two fluorescence reporters expressed from a single T7 wild-type promoter located upstream of the first fluorescence protein GFP. The expression of the two fluorescence proteins is enabled by an IPTG-inducible T7 RNAP expression system of the controller strain MR7 (FIGS. 13A-13B). All genetic parts for P. protegens Pf-5 were characterized as follows.

nifH promoter = assay: nifH expression analysis (PnifH-sfgfp, flow cytometry), A. caulinodans; assay type: cell-based, Azorhizobium caulinodans; settings: nifA and rpoN under IPTG control, condition used for nitrogen fixation
Method: Flow cytometry. Cultures with fluorescence proteins were analyzed by flow cytometry using a BD Biosciences LSRII Forterssa analyzer with a 488 nm laser and 510/20-nm band pass filter for GFP and a 561 nm laser and 610/20 nm band pass filter for mCherry and mRFP1. Cells were diluted into 96-well plates containing phosphate buffered saline solution (PBS) supplemented with 2 mg/mL kanamycin after incubation. Cells were collected over 20,000 events which were gated using forward and side scatter to remove background events using FlowJo (TreeStar Inc., Ashland, Oreg.). The median fluorescence from cytometry histograms was calculated for all samples. The median autofluorescence was subtracted from the median fluorescence and reported as the fluorescence value in arbitrary unit (au).
nifH expression analysis. Complementation of NifA was tested using plasmid pMR-128 to 130 that contains the sfgfp fused to the nifH promoter in the A. caulinodans ΔnifA mutant. The inducible NifA/RpoN expression was provided by the plasmid pMR-121 into which sfgfp driven by the nifH promoter was added to analyze MN promoter activity, yielding pMR-131 (FIG. 29). […] Each of the plasmids was mobilized into the A. caulinodans ΔnifA mutant, which was grown following the same protocol as used for nitrogenase activity (described herein). […]

P. protegens Pf-5 [3] = assay: Characterization of genomically integrated controllers (T7 promoter GFP reporter), P. protegens Pf-5; assay type: cell-based, Pseudomonas protegens; settings: P. protegens Pf-5 controller strain MR7, reporter plasmid pMR-80
Text: Genomic integration and characterization of controllers. The mini-Tn7 insertion system was used to introduce a controller into the genome of P. protegens Pf-5. The IPTG-inducible T7 RNAP expression system and a tetracycline resistant marker tetA was placed between two Tn7 ends (Tn7L and Tn7R). The controller plasmid pMR-85 was introduced into P. protegens Pf-5 by double transformation with pTNS3 encoding the TnsABCD transposase. A genomically-integrated controller located 25 bp downstream of the stop codon of glmS was confirmed by PCR and sequencing. A markerless insertion method using homologous recombination was employed in R. sp. IRBG74. A controller encoding inducible T7 RNAP system flanked by two homology fragments that enables the replacement of recA was cloned into a suicide plasmid. These controller plasmids (IPTG-inducible, pMR82-84; DAPG-inducible, pMR85) in E. coli was mobilized into R. sp. IRBG74 MR18 (AhsdR. Anif) by triparental mating, generating the controller strains (MR19, 20, 21 and 22, respectively). The controller integration in the genome was confirmed by gentamicin sensitivity and diagnostic PCR. All controllers were characterized in a manner identical to that described in genetic part characterization.

Row | SMILES | inducibility of the T7 promoter by controller plasmid [1] | expression range of IPTG-inducible system (P. protegens Pf-5 [2]) | dynamic range of response function from the nifH promoter (nifH promoter) | activation of GFP expression by the T7 promoter (P. protegens Pf-5 [3])
1 | C[N+](C)(C)CCO.[Cl-] [choline-Cl, Choline chloride] | not inducible |  |  | 
2 | CC(C)S[C@@H]1O[C@H](CO)[C@H](O)[C@H](O)[C@H]1O [IPTG, Isopropyl-beta-D-thiogalactoside] |  | 110 fold | 45 fold | 96 fold

— patent US12281299B2, “Control of nitrogen fixation in rhizobia that associate with cereals” (Massachusetts Institute of Technology, priority 2019, dated 2025)
